From article PMC6974970 (Annals of Clinical Microbiology and Antimicrobials, 2020)
“And” between values parts separate entries of the source, which are not always exact repeats. Equal entries are not always repeated. “Also recorded” adds a separate entry of the source. Where two headings read alike, the source gives them in different places.

Assay: Pharmacokinetic monitoring of plasma LPV and RTV (HPLC/MS–MS) in TB/HIV co-infected patients on LPV/RTV plus rifabutin
Type: in vivo, human
Details: for concentration: read-out: C0 (plasma drug concentration before the morning dose); for Tmax, individual patients: unit from Table 2; for AUC(0-t): read-out: AUC0–12h; for concentration at 12 h: read-out: C12 (plasma drug concentration 12 h post-dose); for C1, individual patients: individual plasma concentration at 1 h; for C2, individual patients: individual plasma concentration at 2 h; for C3, individual patients: individual plasma concentration at 3 h; for C4, individual patients: individual plasma concentration at 4 h; for C6, individual patients: individual plasma concentration at 6 h; for C8, individual patients: individual plasma concentration at 8 h; for C12, individual patients: individual plasma concentration at 12 h; for C0, individual patients: individual plasma concentration before dose, per patient
Protocol: This was a pharmacokinetic study based on the use of LPV and RTV in HIV and tuberculosis co-infected adults. They were being treated with rifabutin 150 mg thrice weekly or rifabutin 300 mg thrice weekly.
The patients were participating in the RIFLOPI study registered on PACTR201310000629390. They were recruited from the Bogodogo and Kossodo district hospitals in Ouagadougou from May 2013 to December 2015. Study inclusion criteria were that the patients were between 18 and 60 years of age, HIV-1 infected with pulmonary tuberculosis confirmed or suspected. […] The 2 weeks minimum delay comes from the time frame of building up full induction effect. The participating patients were divided into two groups. The first group (RBT 150 mg thrice weekly) consisted of nine patients on antiretroviral and anti-tuberculosis treatment including LPV (LPV/RTV 400/100 mg + 2INTI) twice daily in combination with rifabutin 150 mg thrice weekly and standard ethambutol–isoniazid–pyrazinamide. The second group (RBT 300 mg thrice weekly) consisted of seven patients treated with (LPV/RTV 400/100 mg + 2INTI) twice daily in combination with rifabutin 300 mg thrice weekly and standard ethambutol–isoniazid–pyrazinamide. […] Each patient took a daily dose of cotrimoxazole to prevent opportunistic infections associated with HIV.
Pharmacokinetic monitoring was performed after 2 weeks of combined LPV/RTV and RBT treatment. On the day before pharmacokinetic monitoring, patients were admitted and fasted from midnight onwards. The pharmacokinetic assessment was conducted on a day when a dose of RBT was taken. The first measure of the pharmacokinetic monitoring (time zero) was performed on an empty stomach before taking the daily dose of RBT and LPV/RTV. After the first blood sampling, patients immediately (within 5 min) took their rifabutin and LPV/RTV regimen. Subsequent blood samples for pharmacokinetic monitoring were collected at 1, 2, 3, 4, 6, 8 and 12 h after combined drug ingestion. Breakfast (a sandwich and water) was served to the patients 2 h after drug ingestion.
Two to three millilitres of blood was collected in a heparinized primary vial and centrifuged at 3000 rpm for 10 min within 1 h of collection. The plasma was stored at − 20 °C until transportation to the laboratory for the pharmacokinetic analysis.
A high-performance liquid chromatography–mass spectrometry (HPLC/MS–MS) assay previously described by Moyer et al. was used to determine the LPV and RTV plasma concentrations at the Service of Clinical Pharmacology (IRCCS S Matteo, Pavia, Italy). The limit of quantification was 0.05 µg/mL for both drugs. The assay was validated in accordance with the European Medicines Agency (EMA) “Guidelines on bioanalytical method validation. The areas under the plasma concentration–time curve (AUC) were calculated by using the linear trapezoidal rule.
Data were entered using EpiData (http://www.epidata.dk) and Excel and analysed with Stata, version 13 (https://www.stata.com, StataCorp LP; College Station, TX, USA). Descriptive statistics were used to describe the patient’s characteristics and to calculate the frequencies, proportions and medians with interquartile intervals. Statistical comparisons were made using Fisher’s exact test with 5% set as the significance level. For the LPV and RTV pharmacokinetic profile, we determined for each patient the Cmax (peak concentration measured (µg/mL)), the Ctrough (drug plasma concentration measured just prior to administration of the drug dose (µg/mL)), the Tmax (time for Cmax), the area under the curve during a dosing interval (AUC0–12 = plasma concentration * time (µg × h/mL) and the apparent clearance (CL/F, true clearance divided by the true absolute bioavailability).

[1] = first group RBT 150 mg TPW, listed as RTV
[2] = human, plasma, oral, LPV/RTV 400/100 mg twice daily with RBT 150 mg TPW (n = 9), median and IQR
[3] = human, plasma, oral, LPV/RTV 400/100 mg twice daily with RBT 300 mg TPW (n = 7), median and IQR
[4] = second group RBT 300 mg TPW, listed as RTV

CC(C)c1nc(CN(C)C(=O)N[C@H](C(=O)N[C@@H](Cc2ccccc2)C[C@H](O)[C@H](Cc2ccccc2)NC(=O)OCc2cncs2)C(C)C)cs1 [Ritonavir, ritonavir]
concentration (LPV/RTV 400/100 mg twice daily with RBT 150 mg TPW (arm A, n = 9), median and IQR, plasma): 2100 ng/mL | concentration (LPV/RTV 400/100 mg twice daily with RBT 300 mg TPW (arm B, n = 7), median and IQR, plasma): 1600 ng/mL | AUC0–12, individual patients [1]: 10.8 µg·h/mL and 23.5 µg·h/mL and 14.8 µg·h/mL and 7.8 µg·h/mL and 8.9 µg·h/mL and 12.8 µg·h/mL and 12.2 µg·h/mL and 18.5 µg·h/mL | Cl, individual patients [1]: 0.17 L/h/kg and 0.08 L/h/kg and 0.11 L/h/kg and 0.25 L/h/kg and 0.19 L/h/kg and 0.18 L/h/kg and 0.15 L/h/kg | Cmax, individual patients [1]: 3.6 µg/mL and 2.9 µg/mL and 1.28 µg/mL and 1.86 µg/mL and 2.26 µg/mL and 2.74 µg/mL and 3.16 µg/mL | Tmax, individual patients (first group RBT 150 mg TPW): 3 h | Tmax, individual patients [1]: 1 h and 4 h and 6 h | Cmax (human, plasma, oral, 150 mg, first group RBT 150 mg TPW, read-out: Cmax, individual patients): 1910 ng/mL | AUC(0-t) [2]: 12700 ng·h/mL | concentration at 12 h [2]: 1700 ng/mL | Cmax (human, plasma, oral, LPV/RTV 400/100 mg twice daily with RBT 150 mg TPW (n = 9), median and IQR, read-out: Cmax): 2700 ng/mL | Tmax [3]: 2 h | AUC(0-t) [3]: 6600 ng·h/mL | concentration at 12 h [3]: 600 ng/mL | CL/F (human, plasma, oral, LPV/RTV 400/100 mg twice daily with RBT 300 mg TPW (n = 7), median and IQR, read-out: CL (apparent clearance, CL/F) (converted)): 4.83 mL/min/kg | Cmax (human, plasma, oral, LPV/RTV 400/100 mg twice daily with RBT 300 mg TPW (n = 7), median and IQR, read-out: Cmax): 1500 ng/mL | C1, individual patients [1]: 1.91 µg/mL and 3.8 µg/mL and 3.1 µg/mL and 0.4 µg/mL and 1.86 µg/mL and 2 µg/mL | C1, individual patients [4]: Low and 0.37 µg/mL and 1.97 µg/mL and 2.14 µg/mL and 1.64 µg/mL and 1.5 µg/mL | C2, individual patients [1]: 1.72 µg/mL and 3.6 µg/mL and 2.6 µg/mL and 1.7 µg/mL and 2.5 µg/mL and 2.24 µg/mL | C2, individual patients [4]: 1 µg/mL and 0.4 µg/mL and 0.8 µg/mL and 2.22 µg/mL and 2.43 µg/mL and 1.9 µg/mL and 1.12 µg/mL | C3, individual patients [1]: 1.65 µg/mL and 3.5 µg/mL and 2.9 µg/mL and 0.64 µg/mL and 0.4 µg/mL and 1.81 µg/mL | C3, individual patients [4]: 1.33 µg/mL and 0.3 µg/mL and 0.8 µg/mL and 1.41 µg/mL and 2.4 µg/mL and 1.9 µg/mL and 1.2 µg/mL | C4, individual patients [1]: 1.2 µg/mL and 2.7 µg/mL and 1.7 µg/mL and 1.28 µg/mL and 0.5 µg/mL and 2.26 µg/mL | C4, individual patients [4]: 1.44 µg/mL and 0.38 µg/mL and 0.9 µg/mL and 0.95 µg/mL and 1.67 µg/mL and 2 µg/mL and 1 µg/mL | C6, individual patients [1]: 1.64 µg/mL and 3.3 µg/mL and 1.5 µg/mL and 0.7 µg/mL and 1 µg/mL | C6, individual patients [4]: 1.22 µg/mL and 0.3 µg/mL and 0.8 µg/mL and 1.45 µg/mL and 1.3 µg/mL and 2.5 µg/mL and 0.5 µg/mL | C8, individual patients [1]: 1.24 µg/mL and 2.8 µg/mL and 1.2 µg/mL and 2.4 µg/mL and 1 µg/mL and 1.5 µg/mL | C8, individual patients [4]: 1.1 µg/mL and 0.28 µg/mL and 0.9 µg/mL and 0.66 µg/mL and 1 µg/mL and 2 µg/mL and 0.13 µg/mL | C12, individual patients [1]: 1.1 µg/mL and 3.6 µg/mL and 0.6 µg/mL and 0.2 µg/mL and 1.33 µg/mL and 1.7 µg/mL | C12, individual patients [4]: 0.62 µg/mL and low and 0.6 µg/mL and 0.53 µg/mL and 0.7 µg/mL and 1.86 µg/mL and Low | C0, individual patients [1]: 1.85 µg/mL and 4.11 µg/mL and 3.1 µg/mL and 1.2 µg/mL and 2.1 µg/mL and 1.43 µg/mL | C0, individual patients [4]: below the limit of quantification and Low and 0.41 µg/mL and 0.2 µg/mL and 2.72 µg/mL and 1.84 µg/mL and 1.55 µg/mL and 2.3 µg/mL | reduction of plasma concentrations, RBT 300 mg versus RBT 150 mg (patients receiving RBT 300 mg TPW compared to RBT 150 mg TPW, listed as RTV): nearly halved; also recorded: nearly half | Cl, individual patients [4]: 0.39 L/h/kg and 0.81 L/h/kg and 0.54 L/h/kg and 0.16 L/h/kg and 0.20 L/h/kg and 0.15 L/h/kg and 0.29 L/h/kg | Tmax, individual patients [4]: 4 h and 6 h and 1 h
